From patent US9694090B2, “Process for preparing hyperpolarized substrates and method for MRI” (priority 2010, dated 2017)

How the values were obtained:
[1] = Glass formation of the DNP preparation upon rapid freezing in liquid nitrogen; assay type: physicochemical
Protocol: Butyric acid (11.7 mg, 0.13 mmol) was placed into an Eppendorf tube and mixed with 9.0 mg of a glycerol solution containing 39 mM of Radical 1. This preparation was 7 M with respect to butyric acid.
Butyric anhydride (40 μl, 0.24 mmol) was added to an Eppendorf tube and mixed with 1 mg of Radical 3 in a total concentration of 15 mM. This preparation was 6.5 M with respect to butyric anhydride (which, upon hydrolysis provides a 13 M concentration in butyric acid molecules).
Butyric acetic anhydride (36 μl, 0.28 mmol) was added to an Eppendorf tube and mixed with 0.85 mg of acid form of Radical 3 in a total concentration of 15 mM. This preparation was 7.5 M with respect to butyric acetic acid.
Li-acetoacetate (22.4 mg, 0.21 mmol) was added to an Eppendorf tube and mixed with 28 μl of a DMSO preparation (25 mM Radical 3 and 0.8 mM 3-Gd). This preparation was 4 M with respect to Li-acetoacetate.
To an Eppendorf tube was added diketene (9.6 mg, 0.11 mmol) and mixed with 4.7 mg of a DMSO preparation of Radical 3 (45 mM) and 3-Gd (1.5 mM). This preparation was 8.5 M with respect to diketene.
Ethyl acetoacetate (45 μl, 0.34 mmol) was added to an Eppendorf tube and mixed with acid form of Radical 2 (0.7 mg, 0.65 μmol) in a total concentration of 15 mM. This preparation was 8 M with respect to ethyl acetoacetate.
Cis-aconitic acid (18.6 mg, 0.11 mmol) was added to an Eppendorf tube and mixed with a 32.5 μl DMSO preparation (25 mM Radical 3 and 0.8 mM 3-Gd). This preparation was 2.5 M with respect to cis-aconitic acid.
Cis-aconitic anhydride (188 mg, 1.2 mmol) was added to an Eppendorf tube and mixed with 2.85 mg (2 μmol) of Radical 1 and 0.98 mg of a 83 μmol/g solution of 3-Gd. This preparation was 9 M with respect to cis-aconitic anhydride.
Succinic acid (42.1 mg, 0.35 mmol) was added to an Eppendorf tube and mixed and mixed with 92 mg of a DMSO preparation (20 mM Radical 3 and 0.8 mM 3-Gd). This preparation was 4 M with respect to succinic acid.
Succinic anhydride (21.5 mg, 0.21 mmol) was added to an Eppendorf tube and mixed with 21.8 mg of a DMSO solution of Radical 3 (30 mM) and of 3-Gd (1 mM). This preparation was 6 M with respect to succinic anhydride.
Succinic-(1)-ethyl ester (111 mg, 0.75 mmol) was added to an Eppendorf tube and mixed with the carboxylic acid form of Radical 2 (2.4 mg, 1.5 μmol) and 3-Gd (3.4 μl of a 14.5 mM solution in water). This preparation was 6 M with respect to succinic-(1)-ethyl ester.
(§1) L-Glutamine (50.9 mg, 0.35 mmol) was added to an Eppendorf tube and dissolved in 29 μl of 12 M NaOH and mixed with 1.7 mg of radical 1 and 3-Gd (2.3 μl of a 14.5 mM water stock solution). This preparation was 4 M with respect to L-glutamine.

[2] = DNP solid-state polarization signal and build-up (1.2 K, 3.35 T); conditions: DNP at 1.2 K
Protocol: To this solution 1.1 mg (0.77 μmol) radical 1 was added. […] This entire sample was hyperpolarized under DNP conditions at 1.2 K in a 3.35 T magnetic field under irradiation with microwave (93.900 GHz) until the polarization was fully build-up. The polarization was monitored in solid state with small pulse angles (5 degree) collected every 300 s.
This entire sample was polarized under DNP conditions at 1.2 K in a 3.35 T magnetic field under irradiation with microwave (93.900 GHz) until the polarization was fully built-up. The polarization was monitored in solid state with small pulse angles (5 degree) collected every 300 s.
To this solution 0.77 mg (0.54 μmol) radical 1 was added. […] This entire sample was polarized under DNP conditions at 1.2 K in a 3.35 T magnetic field under irradiation with microwave (93.900 GHz) until the polarization was fully built-up. The polarization was monitored in solid state with small pulse angles (5 degree) collected every 300 s.
To this solution 1.65 mg (1.15 μmol) radical 1 was added. […] This entire sample was polarized under DNP conditions at 1.2 K in a 3.35 T magnetic field under irradiation with microwave (93.900 GHz) until the polarization was fully built-up. The polarization was monitored in solid state with small pulse angles (5 degree) collected every 300 s.
63.2 mg (0.33 mmol) of this sample was hyperpolarized under DNP conditions at 1.2 K in a 3.35 T magnetic field under irradiation with microwave (93.900 GHz) until the polarization was fully built-up.

[3] = T1 relaxation time in solution at 14.1 T; assay type: physicochemical; conditions: for High field liquid state T1: 14.1 T magnet, phosphate buffer, pH 7.1-7.2
Protocol: The ester was only partly hydrolyzed.
The T1 of the hydrolyzed product, succinate is 33 s (14.1 T and 37° C.).
The sample was dissolved in 5 ml phosphate buffer (100 mM, pH 7) with added one equivalent HCl. The pH is 7.1 after dissolution.
The pH is 7.2 after dissolution.

[4] = Hydrolysis of the DNP hyperpolarized precursor on dissolution with strong base, followed by 13C-NMR time series; assay type: physicochemical
Protocol: (§2) The composition from example 1b (25 mg, 0.16 mmol) was transferred from the Eppendorf tube to a sample cup and the sample cup was inserted into a DNP polariser. The composition was hyperpolarised under DNP conditions at 1.2 K in a 3.35 T magnetic field under irradiation with microwave (93.915 GHz). The sample was hyperpolarized for 75 min.
The sample was dissolved in 4 ml water with added NaOH (50 μl of 12M solution). The pH of the dissolved sample was 12. The solution was collected directly into a 10 mm NMR tube and transferred to a 14.1 T magnet where a time series of 5 degree 1D 13C-NMR spectra were recorded with a total delay between the pulses of 1 s.
as §2, with “is (33” for “1b (25”, “0.25” for “0.16”, “90” for “75”
The sample was dissolved in 5 ml water with added NaOH (125 μl of 12M). The solution was collected directly into a 10 mm NMR tube and transferred to a 14.1 […]) T magnet where a time series of 5 degree 1D 13C-NMR spectra were recorded with a total delay between the pulses of 1 s.
(§3) The entire composition from example 2b was transferred from the Eppendorf tube to a sample cup and the sample cup was inserted into a DNP polariser. The composition was hyperpolarised under DNP conditions at 1.2 K in a 3.35 T magnetic field under irradiation with microwave (93.915 GHz). The sample was hyperpolarized for 3 hours.
(§4) The sample was dissolved in 5 ml water with added NaOH (125 μl of 12 M). The solution was collected directly into a 10 mm NMR tube and transferred to a 14.1 T magnet (pH 13) where a time series of 64 five degree 1D 13C-NMR spectra were recorded with a total delay between the pulses of 3 s.
as §2, with “is (20.5” for “1b (25”, “2 hours.” for “75 min.”
(§5) The sample was dissolved in 5 ml water with added NaOH (200 μl of 12 M). The solution was collected directly into a 10 mm NMR tube and transferred to a 14.1 T magnet (pH 12.8) where a time series of 5 degree 1D 13C-NMR spectra were recorded with a total delay between the pulses of 3 s.
as §3, with “The” for “The entire”, “2b was melted on a water-bath and stirred with a magnetic stirrer. 45 mg of this preparation (0.29 mmol)” for “2b”, “90 min.” for “3 hours.”
(§6) The sample was dissolved in 6 ml water with added NaOH (190 μl of 12 M). The solution was collected directly into a 10 mm NMR tube and transferred to a 14.1 T magnet (pH 12.8) where a time series of 64 five degree 1D 13C-NMR spectra were recorded with a total delay between the pulses of 3 s.

[5] = Degradation / isomerisation of the substrate in DNP preparation and dissolution (NMR)
Protocol: as §3, with “2a” for “2b”, “75 min.” for “3 hours.”
The sample was dissolved in 5 ml phosphate buffer pH 7.3 (40 mM+EDTA).
The solution was collected directly into a 10 mm NMR tube and transferred to a 14.1 T magnet where a 90 degree 1D 13C-NMR spectrum was recorded.
as §4, §5
The sample was dissolved in 5 ml 40 mM phosphate buffer pH 7.3+100 mg/l EDTA, thus resulting in an ester concentration of 20 mM. 1 ml of the ester solution was injected through a transfer line into a 10 mm NMR tube placed at 14.1 T and 37° C. The 10 mm NMR tube contained a 500 μl solution of approximately 270 U of a carboxylic-ester hydrolase from porcine liver. A time series of 10 degree 1D 13C-NMR spectra were recorded with a total delay between the pulses of 3 s.
as §5, with “phosphate buffer (40 mM, pH 7.3)” for “water”, “30” for “NaOH (200”, “μl” for “μl of”, “M NaOH. […]” for “M).”, “magnet” for “magnet (pH 12.8)”
as §6, §1
N-acetyl-L-glutamine (57.2 mg, 0.3 mmol) was added to an Eppendorf tube and dissolved in 25.3 μl of 12 M NaOH and mixed with 1.9 mg of radical 1 and 3-Gd (2.3 μl of a 14.5 mM water stock solution).

[6] = with trityl radical, without addition of glass-forming agents
[7] = dissolved in 12 M NaOH with radical 1
[8] = after 15 s, strong base (NaOH or NaOD), pH 11-12.2
[9] = after 10 s, water with added NaOH, pH 12-13
[10] = mixed with DMSO preparation of Radical 3
[11] = after 20 s, water with added NaOH, pH 12.9-13

Which “Glass formation upon rapid freezing” value [1, 6] does the source give for `C=C(CC(=O)OCC)[13C](=O)OCC` [1-13C Itaconate diethyl ester] here?
Its value is “formed a glass”.

And the “Polarization build-up time constant” value [2]?
The value was 2120 s.

With `[2H][13C]([2H])(N)C(=O)O` [2-13C-d2-Glycine, reference compound] as the molecule, how does the “High field liquid state T1” value [3] read?
The value was 46 s.

What about the “Glass formation upon rapid freezing in liquid nitrogen” value [1, 7] of the same molecule?
Its value is “forms a glass”.

What does the source list for `[2H][13C]([2H])(NC(C)=O)C(=O)O` [2-13C-d2-N-acetyl glycine]?
High field liquid state T1 [3]: 40 s; Glass formation upon rapid freezing in liquid nitrogen [1, 7]: formed a glass

For `CCOC(=O)C(=O)CCC(=O)O` [2-oxoglutaric-(1)-ethyl ester], which Precursor hydrolyzed [4, 8] is on record?
The Precursor hydrolyzed was “at least 95%”.

And the “Glass formation upon rapid freezing” value [1, 6]?
Its value is “formed a glass”.

Which results are given for `CCCC(=O)OC(C)=O` [Butyric acetic anhydride]?
Precursor hydrolyzed [4, 9]: at least 95%; Glass formation upon rapid freezing [1, 6]: formed a glass

Which results are given for `CCCC(=O)O` [Butyric acid, reference compound]?
Glass formation upon rapid freezing in liquid nitrogen ([1]; mixed with glycerol solution of Radical 1): formed a glass; Glass formation upon rapid freezing [1, 6]: crystallizes

Which results are given for `CCCC(=O)OC(=O)CCC` [Butyric anhydride]?
Precursor hydrolyzed [4, 9]: at least 95%; Glass formation upon rapid freezing [1, 6]: formed a glass

With `CCCC(=O)OC(=O)OCC` [Butyric ethylcarbonic anhydride] as the molecule, how does the “Glass formation upon rapid freezing” value ([1]; absence of a glass forming additive, Example 1d (Prophetic)) read?
The value was “forms a glass”.

What does the source list for `O=C(O)/C=C(/CC(=O)O)C(=O)O` [Cis-aconitic acid, reference compound]?
Amount of trans isomer of aconitate ([5]; after DNP and dissolution in phosphate buffer with NaOH, pH 7.2): about 10%; Glass formation upon rapid freezing in liquid nitrogen [1, 10]: formed a glass

For `O=C(O)CC1=CC(=O)OC1=O` [Cis-aconitic anhydride, cis-Aconitic anhydride], which Presence of trans-aconitate ([5]; after DNP and hydrolysis with NaOH, pH 12.8) is on record?
The Presence of trans-aconitate was “neglectable”.

And the Precursor hydrolyzed [4, 9]?
The Precursor hydrolyzed was “at least 95%”.

What about the “Glass formation upon rapid freezing” value [1, 6] of the same molecule?
Its value is “formed a glass”.

For `CCOC(=O)C1CSC(=O)N1` (centres unmarked) [Ethyl OTZ, 2-Oxothiazolidine-4-carboxylic ethyl ester], which Precursor hydrolyzed ([4]; in less than 10 s, water with added NaOH, pH 11-12.6) is on record?
Its Precursor hydrolyzed is “at least 95%”.

Which Precursor hydrolyzed [4, 8] does the source give for `CCOC(=O)C(N)Cc1ccccc1` (centres unmarked) [Ethyl phenylalanine] here?
The Precursor hydrolyzed was “at least 95%”.

What about the “Glass formation upon rapid freezing” value [1, 6] of the same molecule?
The value was “formed a glass”.

For `NC(=O)CC[C@H](N)C(=O)O` [L-Glutamine, reference compound], which “Amount of degradation in the DNP preparation” value ([5]; 4 M) is on record?
The value was 14%.

And the “Glass formation upon rapid freezing in liquid nitrogen” value [1, 7]?
Its value is “formed a glass”.

Which “Glass formation upon rapid freezing in liquid nitrogen” value [1, 7] does the source give for `N[C@@H](Cc1ccccc1)C(=O)O` [L-Phenylalanine, reference compound] here?
Its value is “formed a glass”.

For `CC(=O)CC(=O)[O-].[Li+]` [Li-acetoacetate, reference compound], which “Amount of degradation (decarboxylation)” value ([5]; 1H NMR on DNP sample following dissolution in phosphate buffer pH 7.3) is on record?
The value was 40%.

And the “Glass formation upon rapid freezing in liquid nitrogen” value [1, 10]?
Its value is “formed a glass”.

With `O=C(O)CC(O)C(=O)O` (centres unmarked) [Malic acid, reference compound] as the molecule, how does the “Glass formation upon rapid freezing in liquid nitrogen” value [1, 10] read?
The value was “formed a glass”.

Which Precursor hydrolyzed [4, 11] does the source give for `CCOC(=O)C(O)CC(=O)O` (centres unmarked) [Malic-(1)-ethyl ester] here?
The Precursor hydrolyzed was “at least 95%”.

And the “Glass formation upon rapid freezing” value [1, 6]?
The value was “formed a glass”.

With `O=C(O)CCC(=O)O` [Succinic acid, reference compound] as the molecule, how does the “Glass formation upon rapid freezing in liquid nitrogen” value [1, 10] read?
Its value is “formed a glass”.

With `O=C1CCC(=O)O1` [Succinic anhydride] as the molecule, how does the Precursor hydrolyzed [4, 9] read?
Its Precursor hydrolyzed is “at least 95%”.

And the “Glass formation upon rapid freezing in liquid nitrogen” value [1, 10]?
The value was “formed a glass”.

With `CCOC(=O)CCC(=O)O` [Succinic-(1)-ethyl ester] as the molecule, how does the Precursor hydrolyzed [4, 11] read?
Its Precursor hydrolyzed is “at least 95%”.

What about the “Glass formation upon rapid freezing” value [1, 6] of the same molecule?
The value was “formed a glass”.

For `CC(=O)CC(=O)O` [acetoacetate], which “Degradation (decarboxylation) of acetoacetate formed” value ([5]; after esterase hydrolysis of ethyl acetoacetate, pH 7.3) is on record?
Its value is “No degradation”.

And the “Degradation (decarboxylation) of acetoacetate formed” value ([5]; after hydrolysis of precursor with NaOH, pH 12.8-13)?
The value was “No substantial degradation”.

And the “T1 of the C1 position in the hydrolyzed product” value ([3]; 14.1 T and 37° C.)?
The value was 32 s.

And the “T1 of the hydrolyzed product” value ([3]; 14.1 T and 37° C.)?
The value was 32 s.

Which “T1 of the hydrolyzed product” value ([3]; 14.1 T and 37° C.) does the source give for `O=C(O)/C=C(/CC(=O)O)C(=O)O` [cis-aconitate] here?
The value was 24 s.

Which Precursor hydrolyzed [4, 9] does the source give for `C=C1CC(=O)O1` [diketene, 4-Methylideneoxetan-2-one] here?
Its Precursor hydrolyzed is “at least 95%”.

And the “Glass formation upon rapid freezing in liquid nitrogen” value [1, 10]?
The value was “formed a glass”.

Which “T1 of the hydrolyzed product” value ([3]; 14.1 T and 37° C.) does the source give for `O=C(O)CCC(=O)O` [succinate] here?
Its value is 33 s.
